The source of these data is ChEMBL document CHEMBL4602691, “Selective DYRK1A Inhibitor for the Treatment of Type 1 Diabetes: Discovery of 6-Azaindole Derivative GNF2133” (J Med Chem, 2020).

Molecules are shown by their SMILES.

Data set [1] is described as follows: Metabolic stability in rat liver microsomes assessed as intrinsic clearance at 1 uM incubated for 30 mins by LC-MS/MS analysis. It is filed as ADME, Microsome. The settings on record: 0.5 h.
Data set [2] is described as follows: Metabolic stability in human liver microsomes assessed as intrinsic clearance at 1 uM incubated for 30 mins by LC-MS/MS analysis. It is filed as ADME, Microsome. To be noted: 0.5 h. Background: Liver microsomes are vesicles of endoplasmic reticulum, rich in cytochrome P450 enzymes.
Data set [3] in a line: Metabolic stability in mouse liver microsomes assessed as intrinsic clearance at 1 uM incubated for 30 mins by LC-MS/MS analysis. It is filed as ADME, Microsome. To be noted: 0.5 h.
The nature of data set [4]: Aqueous solubility of compound at pH 6.8. Type of data set: physicochemical. To be noted: aqueous medium.
A short description of data set [5]: AUC in CD-1 mouse pancreas at 30 mg/kg, po. Type of data set: ADME, organism-based.
A short description of data set [6]: Half life in CD-1 mouse at 2 mg/kg, iv. To be noted: in vivo. It is filed as ADME, organism-based.
Data set [7] can be described thus: Tmax in CD-1 mouse at 2 mg/kg, iv. Type of data set: ADME, organism-based. The settings on record: in vivo.
Data set [8] can be described thus: Tmax in CD-1 mouse pancreas at 30 mg/kg, po. It is filed as ADME, organism-based.
Data set [9] in a line: Clast in CD-1 mouse at 30 mg/kg, po. Type of data set: ADME, organism-based. The settings on record: in vivo, read-out: Clast.
The nature of data set [10]: Clast in CD-1 mouse at 2 mg/kg, iv. It is filed as ADME, organism-based. To be noted: in vivo, read-out: Clast.
Data set [11] can be described thus: AUC in CD-1 mouse at 2 mg/kg, iv. It is filed as ADME, organism-based. To be noted: in vivo.
Data set [12] is described as follows: Half life in CD-1 mouse pancreas at 30 mg/kg, po. Type of data set: ADME, organism-based.
Data set [13] is described as follows: Oral bioavailability in CD-1 mouse at 30 mg/kg. Type of data set: ADME, organism-based. To be noted: in vivo.
Data set [14] is described as follows: Half life in CD-1 mouse at 30 mg/kg, po. Type of data set: ADME, organism-based. The settings on record: in vivo.
Data set [15] can be described thus: Cmax in CD-1 mouse pancreas at 30 mg/kg, po. Type of data set: ADME, organism-based. Set-up: dose 30 mg/kg, route oral.
Data set [16] is described as follows: Volume of distribution at steady state in CD-1 mouse at 2 mg/kg, iv. It is filed as ADME, organism-based. To be noted: in vivo, read-out: Vdss.
Data set [17] in a line: Cmax in CD-1 mouse at 30 mg/kg, po. Type of data set: ADME, organism-based. Further details: dose 30 mg/kg, route oral. To be noted: in vivo.
Data set [18] can be described thus: AUC in CD-1 mouse at 30 mg/kg, po. Type of data set: ADME, organism-based. To be noted: in vivo.
The nature of data set [19]: Clearance in CD-1 mouse at 2 mg/kg, iv. It is filed as ADME, organism-based. The settings on record: in vivo.
A short description of data set [20]: Cmax in CD-1 mouse at 2 mg/kg, iv. It is filed as ADME, organism-based. Set-up: dose 2 mg/kg, route intravenous. To be noted: in vivo.
Data set [21] in a line: Tmax in CD-1 mouse at 30 mg/kg, po. It is filed as ADME, organism-based. The settings on record: in vivo.
Data set [22] can be described thus: Clast in CD-1 mouse pancreas at 30 mg/kg, po. Type of data set: ADME, organism-based. To be noted: in vivo, read-out: Clast.

In general, solubility refers to how much of the substance goes into solution per volume. Read a low solubility as a poorly soluble substance. Usually AUC stands for the area under the concentration-time curve, a measure of exposure. A lower AUC goes with less exposure. In general, half-life refers to the time in which the quantity being followed falls by half. Read a high half-life as slow decline. Broadly, the Tmax is the time at which the peak concentration occurs. As a reminder, the bioavailability is dose-corrected exposure relative to a reference, in per cent. Lower therefore signals little systemic uptake. Usually Cmax stands for the maximum level reached in the sampled fluid or tissue. In general, clearance refers to a measure of how efficiently the substance is removed, as volume per time. Read a low clearance as a low capacity for elimination.

For the compound `CC(C)Cn1cc(-c2ccncc2)c2ccncc21`, the CLH in data set [1] is 79%; in data set [2], 83%; in data set [3], 95%.
Consider `CCN1CCN(C(=O)Nc2cc(-c3cn(C4CCOCC4)c4cnccc34)ccn2)CC1`, for which the results for the CLH in [1], in data set [2] and in data set [3] were 18%, 28% and 30%, respectively. Moreover, in [4], the solubility was above 175 µM.
For the compound `c1ccc(Cn2cc(-c3ccncc3)c3ccncc32)cc1`, the CLH is 67% in [1], 83% in data set [2] and 90% in data set [3].
Turning to `C[C@@H]1CN(C(=O)Nc2cc(-c3cn([C@H]4CC[C@@](C)(O)CC4)c4cnccc34)ccn2)C[C@H](C)O1`, the CLH is given as 18% in [1], 21% in data set [2] and 23% in [3]. This compound registered a solubility in [4] above 175 µM.
`Nc1cc(-c2cn(-c3ccccc3)c3cnccc23)ccn1`: the figures for the CLH in data set [1], in data set [2] and in [3] were 86%, 87% and 94%, respectively.
`c1cc(-c2cn(C3CCOCC3)c3cnccc23)ccn1`: the CLH in [1] was 83%; in [3], 91%.
As for `CCN1CCN(C(=O)Nc2cc(-c3cn(C4CCOCC4)c4cnccc34)ccn2)CC1.Cl`, the area under the curve (AUC) in data set [5] was found to be 144 µM·h; in data set [11], 3.27 µM·h; in [18], 11 µM·h. Also, the half-life in data set [6] is 6.6 h; in [12], 6.6 h; in [14] it was 3.4 h. For the same compound, the Tmax was determined as 1.8 min in data set [7], 3 h in data set [8] and 3 h in data set [21]. In addition, the concentration in data set [9] was 19 nM; in data set [10], 36.6 nM; in data set [22], 1320 nM. In data set [13], the bioavailability turned out to be 22.3%. Also, the peak concentration (Cmax) in data set [15] is 13300 nM; in data set [17], 1680 nM; in data set [20], 1980 nM. The Vd in data set [16] turned out to be 11 L/kg. For the same compound, the clearance in data set [19] worked out at 23.5 mL/min/kg.
For `O=C(Nc1cc(-c2cn(C3CCOCC3)c3cnccc23)ccn1)NC1CC1`, the CLH in [1] amounted to 42%; in [3], 71%.
For `O=C(Nc1cc(-c2cn(C3CCOCC3)c3cnccc23)ccn1)N1CCOCC1`, the figures for the CLH in data set [1], in data set [2] and in data set [3] were 25%, 21% and 23%, respectively.
As to `C[C@@H]1CN(C(=O)Nc2cc(-c3cn(C4CCOCC4)c4cnccc34)ccn2)C[C@H](C)O1`, the values for the CLH in [1] and in data set [3] were 18% and 23%, respectively.
On to `CC1(Cn2cc(-c3ccncc3)c3ccncc32)COC1`, for which the CLH in data set [1] is recorded as 69%; in data set [2] it was 39%; in data set [3], 90%.
For `O=C(Nc1cc(-c2cn(-c3ccccc3)c3cnccc23)ccn1)NC1CC1` the same measures were 60%, 21% and 70%.
For the compound `O=C(Nc1cc(-c2cn(-c3ccccc3)c3cnccc23)ccn1)C1CC1`, the CLH in [1] stood at 50%; in [2], 44%; in data set [3], 76%.
For `c1ccc(-n2cc(-c3ccncc3)c3ccncc32)cc1` the same measures were 90%, 92% and 97%.
On to `c1cc(-c2cn(CC3CC3)c3cnccc23)ccn1`, for which the values for the CLH in data set [1], in data set [2] and in [3] were 87%, 87% and 97%, respectively.
In the case of `CC1(C)CN(C(=O)Nc2cc(-c3cn(C4CCOCC4)c4cnccc34)ccn2)C1`, the CLH in data set [1] is 45%; in [2], 43%; in data set [3] it was 43%.
